Data taken from patent publication US20240207353A1, “USE OF PEPTIDE AMIDE COMPOUND IN PREPARATION OF DRUG FOR TREATING PRURITUS” (XIZANG HAISCO PHARMACEUTICAL CO., LTD., priority 2021, published 2024).

Assays:
[1] = system: compound 48/80-induced scratching behaviour in mice; experiment: Antipruritic effect by nasal drip in mouse models with pruritus induced by compound 48/80; type: in vivo, ICR mice
Experimental: (§1) ICR mice (males) from Beijing Vital River Laboratory Animal Technology Co., Ltd. were randomly grouped, and then different doses of compound 1 or normal saline were administered by nasal drip. After 15 min, 50 μg of compound 48/80 (Sigma, Cat #: C2313) was injected subcutaneously into the nape of the mice, and the times of scratching of mice within 30 min after injection of compound 48/80 was immediately recorded. The obtained data were processed according to the formula [(times of scratching in solvent control group−times of scratching in administration group)/times of scratching in solvent control group×100] to calculate the inhibition ratio on scratching. Statistical analysis was performed with Graphpad Prism 8 software, and fitting was performed to obtain the ED50 value.

[2] = system: serotonin hydrochloride-induced scratching behaviour in rats; experiment: Antipruritic effect of single administration in rat models with pruritus induced by serotonin hydrochloride; type: in vivo, SD rats; settings: intravenous
Experimental: SD rats (males) from Beijing Vital River Laboratory Animal Technology Co., Ltd. were randomly grouped, and then administered intravenously with different doses of compound 1 or normal saline. After 15 min, 10 μL of 2% serotonin hydrochloride (Sigma) was injected intradermally into the nape of the rats, and the times of scratching of rats within 60 min after injection of serotonin hydrochloride was immediately recorded. The obtained data were processed according to the formula [(times of scratching in solvent control group−times of scratching in administration group)/times of scratching in solvent control group×100] to calculate the inhibition ratio on scratching. Statistical analysis was performed with Graphpad Prism 8 software, and fitting was performed to obtain the ED50 value.

[3] = system: haemodialysis subjects with pruritus; experiment: Phase II clinical study of safety, pharmacokinetics and efficacy in haemodialysis subjects; type: in vivo, human
Experimental: For compound 1, a multi-centre, randomized, double-blind, placebo-controlled phase II clinical trial for evaluating the safety, pharmacokinetics and efficacy of compound 1 injection in haemodialysis subjects was performed. This study was divided into two phases.
Phase I was a dose-escalation, randomized, double-blind, placebo-controlled study of multiple intravenous administration within 1 week in haemodialysis subjects, in which 40 haemodialysis subjects were scheduled to be enrolled into 4 dose groups: 0.05 μg/kg, 0.15 μg/kg, 0.30 μg/kg and 0.80 μg/kg, with 10 subjects in each group (including 2 subjects in placebo group), and the experimental drug was administered 3 times in each dose group on D1, D3 and D5, respectively.
Phase II was a randomized, double-blind, placebo-controlled study of administration for 12 weeks in haemodialysis subjects with moderate or more severe pruritus. According to the results of phase I study, two dose groups (0.3 μg/kg and 0.6 μg/kg) and a placebo group as control were selected for phase II study, in which 90 haemodialysis subjects with moderate or more severe pruritus were scheduled to be enrolled and assigned to the above-mentioned three groups according to a ratio of 1:1:1, with 30 subjects scheduled to be enrolled in each group, and compound 1 injection or placebo was administered, respectively.

[4] = system: compound 48/80-induced scratching behaviour in mice; experiment: Antipruritic effect in mouse models with pruritus induced by compound 48/80, intravenous administration; type: in vivo, ICR mice
Experimental: as §1, with “then administered intravenously with” for “then”, “saline.” for “saline were administered by nasal drip.”

[5] = 15 min before compound 48/80 s.c., scratching within 30 min
[6] = 15 min before serotonin hydrochloride intradermal, scratching within 60 min
[7] = maintenance haemodialysis, dose of 0.05 μg/kg to 0.80 μg/kg
[8] = maintenance haemodialysis, multiple times a week for consecutive 12 weeks
[9] = phase I, 0.05-0.80 μg/kg i.v. on D1, D3, D5, each group after treatment
[10] = phase II, 0.3 and 0.6 μg/kg, 12 weeks, each group after treatment

Q: Which results are given for `CC(=O)N1CC2(CCN(C(=O)[C@@H](CCCCN)NC(=O)[C@@H](CC(C)C)NC(=O)[C@@H](Cc3ccccc3)NC(=O)[C@H](N)Cc3ccccc3)CC2)C1` [Compound 1, (2R)—N-[(1R)-1-(2-acetyl-2,7-diazaspiro[3.5]nonane-7-carbonyl)-5-amino-pentyl]-2-[[(2R)-2-[[(2R)-2-amino-3-phenyl-propionyl]amino]-3-phenylpropionyl]amino]-4-methyl-pentanamide]?
A: inhibition of compound 48/80-induced scratching behaviour [1]: inhibited the compound 48/80-induced scratching behaviour in mice in a dose-dependent manner; ED50 value (inhibition ratio on scratching) [1, 5]: 2.72 mg/kg; antipruritic effective dose [1, 5]: 0.3 mg/kg; inhibition of serotonin hydrochloride-induced scratching behaviour [2]: inhibited the serotonin hydrochloride-induced scratching behaviour in rats in a dose-dependent manner; ED50 value (inhibition ratio on scratching) [2, 6]: 0.03 mg/kg; antipruritic effective dose [2, 6]: 0.03 mg/kg; improvement compared to the placebo group ([3]; 0.30 μg/kg group): more significant improvement; maintenance of therapeutic effects after discontinuation ([3]; 0.30 μg/kg group): good maintenance of therapeutic effects after discontinuation; safety [3, 7]: generally safe; serious adverse events related to the experimental drug [3, 7]: no serious adverse events related to the experimental drug; withdrawal tendency after discontinuation [3, 7]: no obvious withdrawal tendency after discontinuation; overall quality of life [3, 8]: improved; pruritus symptoms in patients with chronic kidney diseases [3, 8]: could be effectively relieved; NRS scores [3, 9]: all decreased compared to baseline; total score of Skindex-16 scale [3, 9]: decreased; NRS scores [3, 10]: all decreased compared to baseline; total score and dimension scores of 5-D scale [3, 10]: all decreased compared to baseline; total score and dimension scores of Skindex-16 scale [3, 10]: all decreased compared to baseline; inhibition of compound 48/80-induced scratching behaviour [4]: inhibited the compound 48/80-induced scratching behaviour in mice in a dose-dependent manner; ED50 value (inhibition ratio on scratching) [4, 5]: 0.09 mg/kg; antipruritic effective dose [4, 5]: 0.03 mg/kg
